We go through nine compounds from patent publication US20230234917A1, “ASPARAGINE DERIVATIVES AND METHODS OF USING SAME” (priority 2020, published 2023).

Experiment [1] concerns the target T1, ClbP (Escherichia coli, UniProt Q0P7K6). As to the kind of experiment: ClbP cell lysate activity (inhibition) assay, fluorogenic substrate. In kind it is biochemical. As to conditions: ClbP Lysate Inhibition Assay: IC50, E. coli ClbP+ lysozyme-EDTA lysates, 5 μM fluorogenic substrate, inhibitor 0-300 μM, 37° C., singlicate. The gist of the method: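 E. coli ClbP+ overnight culture lysed with lysozyme-EDTA (30 min, 37 °C); lysate (fivefold concentrated vs culture) mixed with inhibitor (0–300 μM, 4% DMSO) and 5 μM fluorogenic substrate. Fluorescence (ex 360/em 460 nm) read at 37 °C; 0–20 min rates normalized to no-inhibitor, three-parameter IC50 fit, singlicate.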

Experiment [2] concerns the target Full-length WT ClbP (Escherichia coli, UniProt Q0P7K6). In words: ClbP molecular (purified protein) enzymatic inhibition assay, fluorogenic substrate. In kind it is biochemical, E. coli.
The target in experiment [3] is T1, ClbP. In words: ClbP whole cell activity (inhibition) assay, fluorogenic substrate. In kind it is cell-based, E. coli. The method, boiled down: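 E. coli ClbP+ overnight culture washed and concentrated fivefold in PBS, mixed with inhibitor (0–300 μM, 4% DMSO) and 5 μM fluorogenic substrate at 37 °C. Fluorescence (ex 360/em 460 nm) read every 2 min for 46 min. Rates from 10–30 min normalized to no inhibitor and fit to a three-parameter IC50.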

On to `O=C(C[C@@H](NC(=O)CCC1CCCCC1)C(=O)NCCc1ccc(O)cc1)NO` [Compound CCXCV], for which the IC50 in experiment [1], in experiment [2] and in experiment [3] was under 100 µM each time.
Regarding `CCCCCCCC(=O)N[C@H](CC(N)=O)C(=O)NC[C@@H](C)c1ccccc1` [Compound CCCII], the IC50 in experiment [1], in experiment [2] and in experiment [3] was under 100 µM throughout.
As for `CCCCCCCC(=O)N[C@H](CC(N)=O)C(=O)NCCc1ccncc1` [Compound CCVIII], the IC50 in experiment [1], in experiment [2] and in experiment [3] was under 100 µM each time.
Take `CCCCCCCCCC(=O)N[C@H](CC(N)=O)C(=O)NCCc1ccccn1` [Compound CCCIX]: the IC50 in experiment [1], in experiment [2] and in experiment [3] was under 100 µM throughout.
For `CCCCCCCC(=O)N[C@H](CC(N)=O)C(=O)NCCc1ccc(F)cc1` [Compound CCLXXIV], the IC50 in experiment [1], in experiment [2] and in experiment [3] was under 100 µM throughout.
On to `CCCCCCCC(=O)N[C@H](CC(N)=O)C(=O)NCc1ccccc1` [Compound CCI], for which the IC50 in experiment [1], in experiment [2] and in experiment [3] was under 100 µM each time.
As for `NC(=O)C[C@@H](NC(=O)CCCCCCC(F)(F)F)C(=O)NCCc1ccc(O)cc1` [Compound CCCV], the IC50 in experiment [1], in experiment [2] and in experiment [3] was under 100 µM each time.
With `CCCCCCCC(=O)N[C@@H](CNCCc1ccccc1)CC(N)=O` [Compound IX], the values for the IC50 in experiment [1], in experiment [2] and in experiment [3] were over 300 µM, 100 to 300 µM and over 300 µM, respectively.
With `CCCCCCCC(=O)N[C@H](CC(N)=O)C(=O)N[C@H](C)Cc1ccccc1` [Compound CCIII], the IC50 in experiment [1], in experiment [2] and in experiment [3] was under 100 µM each time.
